Data taken from ChEMBL document CHEMBL1153916, “Lithospermic acid derivatives from Lithospermum erythrorhizon increased expression of serine palmitoyltransferase in human HaCaT cells” (Bioorg Med Chem Lett, 2009).
Activity calls are given as the source filed them. The calls are words filed in the database; no cut-off is given here.

Experiments:
HaCaT [1] = assay: Increase in serine palmitoyltransferase 2 mRNA expression in human HaCaT cells by RT-PCR relative to untreated control; type: functional
HaCaT [2] = assay: Increase in serine palmitoyltransferase protein expression in human HaCaT cells at 100 ug/mL by Western blot relative to untreated control; type: functional
HaCaT [3] = assay: Increase in serine palmitoyltransferase protein expression in human HaCaT cells at 30 ug/mL by Western blot relative to untreated control; type: functional
HaCaT [4] = assay: Effect on p65 nuclear expression in human HaCaT cells at 100 ug/mL after 12 hrs by Western blot; type: functional, cell-based
HaCaT [5] = assay: Increase in serine palmitoyltransferase 1 mRNA expression in human HaCaT cells by RT-PCR relative to untreated control; type: functional
HaCaT [6] = assay: Activation of NF-kappaB expressed in human HaCaT cells by luciferase reporter gene assay; type: cell-based
HaCaT [7] = assay: Cytotoxicity against human HaCaT cells at 50 to 200 ug/mL by MTT assay; type: cell-based

Row | Compound | Activity (HaCaT [1]) [%] | Activity (HaCaT [2]) [%] | Activity (HaCaT [3]) [%] | Activity (HaCaT [4]) | Activity (HaCaT [5]) [%] | Activity (HaCaT [6]) | Activity (HaCaT [7])
1 | COC(=O)[C@H]1c2c(/C=C/C(=O)O[C@H](Cc3ccc(O)c(O)c3)C(=O)O)ccc(O)c2O[C@@H]1c1ccc(O)c(O)c1 | 139 | 23 | 8.9 | inactive | 139 | inactive | Non-toxic
2 | COC(=O)[C@@H](Cc1ccc(O)c(O)c1)OC(=O)/C=C/c1ccc(O)c2c1[C@H](C(=O)O)[C@@H](c1ccc(O)c(O)c1)O2 | 159 | 81 | 20.2 | inactive | 148 | inactive | Non-toxic
3 | NC(=O)c1cccnc1 [NIACINAMIDE] | 128 | 57.3 | – | – | 127 | – | –
4 | O=C(/C=C/c1ccc(O)c2c1[C@H](C(=O)O)[C@@H](c1ccc(O)c(O)c1)O2)O[C@H](Cc1ccc(O)c(O)c1)C(=O)O [LITHOSPERMIC ACID] | 151 | 55 | 21.7 | inactive | 121 | inactive | Non-toxic
